Data: patent publication US11008345B2, “Boron-containing small molecules” (Anacor Pharmaceuticals, Inc., priority 2010, dated 2021)
Counter-ions that a name gives are not always drawn. Like-named read-outs stand apart in the source and are kept apart here.

Assays:
[1] = tested on: M. tuberculosis strain Erdman; format: in vivo; conditions: day 24, C57BL/6 GKO mice
[2] = tested on: M. tuberculosis strain Erdman; format: in vivo; conditions: C57BL/6 GKO mice; for log 10 CFU for lungs: day 22, lungs; for log 10 CFU for spleens: day 22, spleens

CO[C@H]1/C=C/O[C@@]2(C)Oc3c(C)c(O)c4c(O)c(c(/C=N/N5CCN(C)CC5)c(O)c4c3C2=O)NC(=O)/C(C)=C\C=C\[C@H](C)[C@H](O)[C@@H](C)[C@@H](O)[C@@H](C)[C@H](OC(C)=O)[C@@H]1C [rifampicin, reference compound]
log 10 CFU/lung ([1]; 10 mg/kg QD PO): 6.16 (0.10) log 10 CFU/lung

CCOc1ccc(F)c2c1B(O)OC2CN.Cl (stereo not shown) [C, 3-Aminomethyl-7-ethoxy-4-fluoro-3H-benzo[c][1,2]-oxaborol-1-ol; Hydrochloride]
log 10 CFU/lung ([1]; 100 mg/kg BID PO): 5.06 (0.26) log 10 CFU/lung

CCOc1ccc(Cl)c2c1B(O)O[C@@H]2CN.Cl (single isomer, unassigned) [L]
log 10 CFU/lung ([1]; 100 mg/kg QD PO): 3.08 (0.06) log 10 CFU/lung

NNC(=O)c1ccncc1 [INH, Isoniazid, reference compound]
log 10 CFU for lungs ([2]; 25 mg/kg QD PO): 5.29 (0.13) log 10 CFU | log 10 CFU for spleens ([2]; 25 mg/kg QD PO): 4.27 (0.25) log 10 CFU

CCOc1ccc(F)c2c1B(O)O[C@@H]2CN.Cl (single isomer, unassigned) [N]
log 10 CFU for lungs ([2]; 100 mg/kg BID PO): 5.51 (0.09) log 10 CFU | log 10 CFU for spleens ([2]; 100 mg/kg BID PO): 2.42 (0.48) log 10 CFU

CCOc1ccc(Br)c2c1B(O)OC2CN (stereo not shown) [E, 3-(Aminomethyl)-4-bromo-7-ethoxybenzo[c][1,2]oxaborol-1(3H)-ol 2,2,2-trifluoroacetate Salt]
log 10 CFU for lungs ([2]; 100 mg/kg QD PO): 5.27 (0.12) log 10 CFU | log 10 CFU for spleens ([2]; 100 mg/kg QD PO): 4.27 (0.25) log 10 CFU | log 10 CFU/lung ([1]; 100 mg/kg BID PO): 2.73 (0.05) log 10 CFU/lung
